Source: patent US10288602B2, “Screening method, a kit, a method of treatment and a compound for use in a method of treatement” (ATROGI AB, priority 2013, dated 2019)

Columns and labels:
Akt [1] = test: Western blot of Akt phosphorylation (T308, S473) in CHO GLUT4 cells; format: cell-based, Chinese Hamster; conditions: for Akt p-S473 % basal: CHO GLUT4, 10 min, approximate values from FIG. 6B, insulin, NA, oxy 0.1 μM, A61603 0.01 μM; for Akt activity represented by phosphorylation of Akt: CHO GLUT4 cells, FIG. 6, 10 min, reference: cells not contacted
Procedure: (§1) L6 myotubes (FIG. 5) and CHO GLUT4 cells (FIG. 6) in 12-well plates were used for western blotting. Cells were serum-starved overnight before experiment. Immunoblotting was performed as previously described (Nevzorova et al. 2006, […] et al. 2011, Nevzorova et al. 2002). Primary antibodies (Akt, phospho-Akt T308, phospho-Akt S473, AS 160, GLUT4, phospho-mTOR […], phospho-mTOR […], raptor, and rictor diluted 1:1000) were all from Cell Signaling Technology, Inc and were detected using a secondary antibody (horseradish peroxidase-linked anti-rabbit IgG, from Cell Signaling Technology, Inc) diluted 1:2000 and measured using enhanced chemiluminescence (ECL, Amersham Biosciences).

CHO GLUT4 cells = test: Glucose uptake (3H-2-deoxy-glucose) in CHO GLUT4 cells; format: cell-based, Chinese Hamster; conditions: for mTORC2 activity represented by glucose uptake: CHO GLUT4 cells, reference: cells not contacted
Procedure: (§2) Glucose uptake was measured in CHO Glut 4 (Chinese Hamster Ovary cells transfected to overexpress GLUT4) and L6-myotubes grown in 12-well plates using ^3H-2-dexoy-glucose as previously described (Nevzorova et al. 2006, Dehvari et al. 2011, Nevzorova et al. 2002) with minor modifications. L6-cells were differentiated for 7-8 days before the experiment, serum-starved over night in media containing 0.5% fatty-acid free BSA and stimulated with test compounds for totally 2 h, unless otherwise stated. The test 3′ compounds used in the experiment were: N-[5-(4,5-dihydro-1H-imidazol-2yl)-2-hydroxy-5,6,7,8-tetrahydro naphthalen-1-yl] methanesulfonamide hydrobromide (A61603), noradrenaline (NA), insulin, oxymetazoline (oxy), and 5-(methylamino)-2-({(2R,3R,6S,8S,9R,11R)-3,9,11-trimethyl-8-[(S)-1-methyl-2-oxo-2-(l H-pyrrol-2-yl)ethyl]-1,7-dioxaspiro[5.5]undec-2-yl}methyl)-1,3-benzoxazole-4-carboxylic acid (also referred to as Calcimycin) (A23187).
(§3) Inhibitors were added 30 min before stimulation. 25 min before the end of the experiment, cells were washed twice in warm PBS and kept in glucose-free DMEM together with the different drugs for 10 min before 50 nM ^3H-2-deoxy-glucose was added for additional 6 minutes. The reaction was terminated by washing the cells in ice-cold PBS three times. Cells were lysed in 0.2 NaOH for 1 h in 60° C. and the radioactivity detected by liquid scintillation (scintillation buffer Emulsifier Safe, Perking Elmer and analysis is a Tri-Carb® 2800TR from Perkin Elmer).

L6 myotubes = test: Glucose uptake (3H-2-deoxy-glucose) in L6 myoblasts and L6 myotubes; format: cell-based; conditions: for effect on GPCR and insulin-stimulated glucose uptake: indinavir 100M; for glucose uptake in L6 myoblasts and L6 myotubes / mTORC2 activity represented by glucose uptake: FIG. 2; for mTORC2 activity represented by glucose uptake: L6 myoblasts and myotubes, reference: cells not contacted
Procedure: as §2, §3

Akt [2] = test: Western blot of Akt phosphorylation (T308, S473) in L6 myotubes; format: cell-based; conditions: for Akt activity represented by phosphorylation of Akt: FIG. 5, 10 min, 30 min, 2 h, reference: cells not contacted
Procedure: as §1

GLUT4 = GLUT4 in plasma membrane (GLUT4 translocation) in L6 myotubes; format: cell-based; conditions: for mTORC2 activity represented by GLUT translocation: FIG. 20, reference: cells not contacted
[3] = system: other members of the PI3K/PIKK family; conditions: at up to 1 μM; Garcia-Martinez et al. 2009; cited from earlier work
mTORC2 = test: Western blot of mTOR phosphorylation (S2448, S2481) in L6 myotubes; format: cell-based; conditions: for mTORC2 activity represented by phosphorylation of mTORC2: FIG. 13, reference: cells not brought into contact with the compound
Procedure: as §1

skeletal muscle = test: [3H]-2DG glucose uptake in mouse skeletal muscle in vivo; conditions: WT 129sv mice, 10 mg/kg, 10 min before insulin or isoproterenol 1 mg/kg; FIG. 12
Procedure: After 20 min [^3H]-2DG (130 μCi/kg) was injected. Muscles were sampled 1 h later and lysed in 0.5M NaOH.
Glucose uptake was measured by liquid scintillation counting.

rat soleus muscle = test: 3-O-methylglucose uptake in intact rat soleus muscle ex vivo; conditions: 30 min preincubation, then insulin or isoproterenol 1 h; FIG. 11
Procedure: Soleus muscles were dissected from Sprague-Dawley rats and suspended in Krebs-Henseleit bicarbonate (KHB) buffer (118.5 mM NaCl, 4.7 mM KCl, 1.2 mM KH2PO4, 25 mM NaHCO3, 2.5 mM CaCl2, 1.2 mM MgSO, 5 mM HEPES) in organ baths containing 30 ml KHB containing 5 mM glucose and 15 mM mannitol, bubbled with 95% O2/5% CO2 (pH 7.4) and maintained at 37° C. […] Muscles were rinsed with KHB (20 mM mannitol) for 10 min, then incubated in KHB (8 mM 3-O-methylglucose and 12 mM mannitol with 438 μCi/mmol 3-O-methyl[^3H]glucose (80.2 Ci/mmol; PerkinElmer) and 42 μCi/mmol [^14C] mannitol (58.8 mCi/mmol; PerkinElmer, USA)) for 12 min. Muscles were then rinsed with PBS and frozen in liquid nitrogen, weighed and dissolved in 1 mL of 0.5M NaOH at 60′C. ^3H and ^14C were measured by liquid scintillation counting. Total muscle 3-O-methylglucose and extracellular space were measured as described previously (23). Intracellular 3-O-methylglucose accumulation was calculated by: (Total muscle 3-O-methylglucose)−(extracellular 3-O-methylglucose)=intracellular 3-O-methylglucose. This is then expressed as a rate of 3-O-methylglucose transport per mL of intracellular water per hour.

[4] = Glucose tolerance test in Goto-Kakizaki GK-rats; format: in vivo, rat; conditions: in drinking water 4 days, 60, 90 and 120 minutes after glucose, vs untreated animals, FIG. 21
Procedure: Goto-Kakizaki GK-rats, showing impaired glucose tolerance form an established model of type 2 diabetes. GK-rats were split into two groups, one of which was treated with the GPCR agonist clenbuterol in the drinking water for 4 days prior to a glucose tolerance test.

AS160 = test: Western blot of AS160 phosphorylation (T642) in L6 myotubes; format: cell-based; conditions: FIG. 7; for Akt activity represented by phophorylation of Akt substrate: AS160 p-T642, L6 myotubes, reference: cells not contacted; for AS160 phosphorylation: L6 myotubes
Procedure: as §1

PIP3 = PIP3 immunofluorescence in permeabilised L6 cells; format: cell-based; conditions: FIG. 3
Procedure: PIP3 was visualized in permeabilised L6 cells (0.5% Triton X-100 in water, 15 min) blocked with 10% rat serum in TBS overnight at 4° C. Mouse anti-PIP3 conjugated to a biotinylated goat anti-mouse IgM diluted 1:100) was incubated for 1 h at 37° C., cells washed three times (10% rat serum in TBS), secondary antibody added (streptavidin-Alexa Fluor® 488 1:2000 in TBS, 30 min, 37° C.). Slides were mounted with ProLong® Gold antifade reagent (Invitrogen).

[5] = L6 myotubes, FIG. 19, cytochalasin B 10 μM

Br.CS(=O)(=O)Nc1c(O)ccc2c1CCCC2C1=NCCN1 (centres unmarked) [A61603, N-[5-(4,5-dihydro-1H-imidazol-2yl)-2-hydroxy-5,6,7,8-tetrahydronaphthalen-1-yl] methanesulfonamide hydrobromide]
Akt p-S473 % basal (Akt [1]): 135 % basal
Akt activity represented by phosphorylation of Akt (Akt [1]): − (6)
mTORC2 activity represented by glucose uptake (CHO GLUT4 cells; FIG. 1): + (1)

CCN(CC)CCCCN1c2ccccc2Oc2ccc(Cl)cc21 [Akt inhibitor X]
effect on insulin-stimulated glucose uptake (L6 myotubes; L6 myotubes, inhibitor 10 μM, FIG. 4): inhibited
effect on GPCR-mediated glucose uptake (L6 myotubes; L6 myotubes, inhibitor 10 μM, isoproterenol, FIG. 4): not GPCR-mediated glucose uptake

O=C(Nc1cccc(Nc2ncc(Br)c(NCCc3cnc[nH]3)n2)c1)N1CCCC1 [BX-912]
effect on insulin-mediated T308-Akt phosphorylation (Akt [2]; L6 myotubes, FIG. 8): significantly inhibited
effect on S473-Akt phosphorylation (Akt [2]; L6 myotubes, insulin, FIG. 8): no effect

COc1ccc(-c2ccc3c(N4CCOCC4)nc(N4C[C@@H](C)O[C@@H](C)C4)nc3n2)cc1CO [KU0063794]
effect on insulin and GPCR stimulated GLUT4 translocation (GLUT4; FIG. 20): significantly inhibits
inhibition of other members of the PI3K/PIKK family [3]: does not inhibit
effect on insulin- and GPCR-stimulated mTOR phosphorylation at S2448 and S2481 (mTORC2; FIG. 13): abolished
effect on insulin and GPCR stimulated glucose-uptake in skeletal muscle in-vivo (skeletal muscle): inhibits
effect on GPCR stimulated glucose-uptake (L6 myotubes; L6 myotubes, FIG. 10A): inhibits
effect on insulin-stimulated Akt phosphorylation at S473 (Akt [2]; 100 nM, L6 myotubes, FIG. 9): decreased
effect on insulin-stimulated phosphorylation of Akt at T308 (Akt [2]; 100 nM, L6 myotubes, FIG. 9): no effect
effect on insulin and GPCR stimulated glucose-uptake in intact soleus muscle ex-vivo (rat soleus muscle): inhibits
effect on GPCR stimulated glucose-uptake (CHO GLUT4 cells; CHO glut 4, FIG. 10B): inhibits

CC(C)(C)NCC(O)c1cc(Cl)c(N)c(Cl)c1 (centres unmarked) [clenbuterol]
blood glucose levels in glucose tolerance test [4]: greatly improved

C=C1[C@@H](C)[C@H]2[C@H](Cc3ccccc3)NC(=O)[C@]23OC(=O)/C=C/[C@H](O)CCC[C@@H](C)C/C=C/[C@H]3[C@@H]1O [cytochalasin B]
block of basal glucose uptake (L6 myotubes; L6 myotubes, FIG. 19, cytochalasin B 10 μM, indinavir): ~40%
effect on GPCR and insulin-stimulated glucose uptake (L6 myotubes; [5]): markedly reduced

CC(C)(C)NC(=O)[C@@H]1CN(Cc2cccnc2)CCN1C[C@@H](O)C[C@@H](Cc1ccccc1)C(=O)N[C@H]1c2ccccc2C[C@H]1O [indinavir]
effect on GPCR and insulin-stimulated glucose uptake (L6 myotubes; [5]): markedly reduced

CC(C)NCC(O)c1ccc(O)c(O)c1 (centres unmarked) [isoproterenol]
mTORC2 activity represented by GLUT translocation (GLUT4): + (20)
phosphorylation of mTOR (sites S2448, S2481) (mTORC2; FIG. 13): phosphorylation only at S2481
mTORC2 activity represented by phosphorylation of mTORC2 (mTORC2): + (13)
glucose uptake in L6 myoblasts and L6 myotubes (L6 myotubes): increased
mTORC2 activity represented by glucose uptake (L6 myotubes): + (1, 2)
Akt activity represented by phosphorylation of Akt (Akt [2]; L6 myotubes): − (5)
Akt activity represented by phophorylation of Akt substrate (AS160): − (7)
AS160 phosphorylation (AS160): not isoproterenol treatment
mTORC2 activity represented by glucose uptake (CHO GLUT4 cells; FIG. 1): + (1, 2)
PIP3 content (PIP3): not isoproterenol increased PIP3 content

NC[C@H](O)c1ccc(O)c(O)c1 [noradrenaline]
Akt p-S473 % basal (Akt [1]): 130 % basal
Akt activity represented by phosphorylation of Akt (Akt [1]): − (6)
mTORC2 activity represented by glucose uptake (CHO GLUT4 cells; FIG. 1): + (1)
glucose uptake in CHO glut 4 (CHO GLUT4 cells; FIG. 1): increases

Cc1cc(C(C)(C)C)c(O)c(C)c1CC1=NCCN1 [oxymetazoline]
Akt p-S473 % basal (Akt [1]): 135 % basal
Akt activity represented by phosphorylation of Akt (Akt [1]): − (6)
mTORC2 activity represented by glucose uptake (CHO GLUT4 cells; FIG. 1): + (1)

CO[C@H]1C[C@@H]2CC[C@@H](C)[C@@](O)(O2)C(=O)C(=O)N2CCCC[C@H]2C(=O)O[C@H]([C@H](C)C[C@@H]2CC[C@@H](O)[C@H](OC)C2)CC(=O)[C@H](C)/C=C(\C)[C@@H](O)[C@@H](OC)C(=O)[C@H](C)C[C@H](C)/C=C/C=C/C=C/1C [rapamycin]
effect on insulin mediated or isoproterenol mediated glucose uptake (L6 myotubes; short term treatment, L6 myotubes, FIG. 14): no effect

insulin
Akt p-S473 % basal (Akt [1]): 170 % basal
Akt activity represented by phosphorylation of Akt (Akt [1]): + (5, 6)
mTORC2 activity represented by GLUT translocation (GLUT4): + (20)
phosphorylation of mTOR (sites S2448, S2481) (mTORC2; FIG. 13): phosphorylation of mTOR at both S2448 and S2481
mTORC2 activity represented by phosphorylation of mTORC2 (mTORC2): + (13)
glucose uptake in L6 myoblasts and L6 myotubes (L6 myotubes): increased
mTORC2 activity represented by glucose uptake (L6 myotubes): + (2)
Akt activity represented by phosphorylation of Akt (Akt [2]; L6 myotubes): + (5, 6)
Akt phosphorylation at T308 and S473 (Akt [2]; all time points examined, FIG. 5, FIG. 6): increased
Akt activity represented by phophorylation of Akt substrate (AS160): + (7)
AS160 phosphorylation (AS160): phosphorylated
PIP3 content (PIP3): increased
